Test results: US20120142705A1, “ISATIN AND OXINDOLE COMPOUNDS” (priority 2010, published 2012)

What follows are molecules tested against T1, Recombinant human liver GK1 (GST-GK) (Homo sapiens, UniProt P35557) (assay: In vitro glucokinase activity, G6PDH-coupled spectrophotometric assay). Conditions: 5 mM D-glucose, 30° C., pH 7.1.
T1 construct: made in house; host or cells: E. coli
T1 sequence (P35557 1-466 isoform P35557-2): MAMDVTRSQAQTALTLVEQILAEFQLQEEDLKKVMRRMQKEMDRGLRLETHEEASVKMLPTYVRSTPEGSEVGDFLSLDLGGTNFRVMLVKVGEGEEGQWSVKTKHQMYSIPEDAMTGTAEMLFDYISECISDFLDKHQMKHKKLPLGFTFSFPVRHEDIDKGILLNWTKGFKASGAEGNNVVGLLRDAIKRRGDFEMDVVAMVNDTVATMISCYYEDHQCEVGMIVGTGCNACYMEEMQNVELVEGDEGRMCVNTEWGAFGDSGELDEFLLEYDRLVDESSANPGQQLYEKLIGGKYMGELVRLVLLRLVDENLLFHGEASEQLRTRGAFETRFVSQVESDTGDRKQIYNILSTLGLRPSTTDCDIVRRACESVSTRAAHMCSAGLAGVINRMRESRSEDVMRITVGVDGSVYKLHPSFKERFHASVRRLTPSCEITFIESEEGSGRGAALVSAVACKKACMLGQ
Format: biochemical
Procedure, shortened: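 GST-fused human liver GK1 from E. coli, run at 30° C. in pH 7.1 HEPES with 5 mM glucose, 1 mM ATP and 10% DMSO, coupled via G6PDH to NADH. OD340 rate measured after enzyme start; SC1.5 is the activator concentration raising activity 50% over DMSO control.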

First: COc1ccc2c(c1)C(=O)C(=O)N2C(CC1CCCC1)C(=O)Nc1nccs1 (centres unmarked) [Example 48, 3-Cyclopentyl-2-(5-methoxy-2,3-dioxo-2,3-dihydro-indol-1-yl)-N-thiazol-2-yl-propionamide]
Second: O=C1C(=O)N(C(CC2CCCC2)C(=O)Nc2nccs2)c2ccc(Cl)cc21 (centres unmarked) [Example 92, 2-(5-Chloro-2,3-dioxo-2,3-dihydro-indol-1-yl)-3-cyclopentyl-N-thiazol-2-yl-propionamide]
The “SC1.5 (concentration of activator that produced a 50% increase in the activity of GK)” value of the first is 1.8-fold higher: 5.48 µM for the first, 3.01 µM for the second.

First: O=C(Nc1cnccn1)C(CC1CCCC1)N1C(=O)Cc2cc(Cl)ccc21 (centres unmarked) [Example 97, 2-(5-Chloro-2-oxo-2,3-dihydro-indol-1-yl)-3-cyclopentyl-N-pyrazin-2-yl-propionamide]
Second: O=C(Nc1ccccn1)C(CC1CCCC1)N1C(=O)Cc2cc(Cl)ccc21 (centres unmarked) [Example 100, 2-(5-Chloro-2-oxo-2,3-dihydro-indol-1-yl)-3-cyclopentyl-N-pyridin-2-yl-propionamide]
The “SC1.5 (concentration of activator that produced a 50% increase in the activity of GK)” value of the first is 3.8-fold higher: 1.84 µM for the first, 0.49 µM for the second.

Compared with `Cc1ccc2c(c1)C(=O)C(=O)N2C(CC1CCCC1)C(=O)Nc1cnccn1` (centres unmarked) [Example 76, 3-Cyclopentyl-2-(5-methyl-2,3-dioxo-2,3-dihydro-indol-1-yl)-N-pyrazin-2-yl-propionamide], `Cc1ccc2c(c1)N(C(CC1CCCC1)C(=O)Nc1ccccn1)C(=O)C2` (centres unmarked) [Example 132, 3-Cyclopentyl-2-(6-methyl-2-oxo-2,3-dihydro-indol-1-yl)-N-pyridin-2-yl-propionamide] is 99-fold lower in “SC1.5 (concentration of activator that produced a 50% increase in the activity of GK)” value: 22.77 µM for the first, 0.23 µM for the second.

Going from `CC(C)CC(C(=O)Nc1ccn(C)n1)N1C(=O)Cc2cc(Br)ccc21` (centres unmarked) [Example 73, 2-(5-Bromo-2-oxo-2,3-dihydro-indol-1-yl)-4-methyl-pentanoic acid (1-methyl-1H-pyrazol-3-yl)-amide] to `CC(C)CC(C(=O)Nc1cnccn1)N1C(=O)Cc2cc(Br)ccc21` (centres unmarked) [Example 75, 2-(5-Bromo-2-oxo-2,3-dihydro-indol-1-yl)-4-methyl-pentanoic acid pyrazin-2-ylamide], the “SC1.5 (concentration of activator that produced a 50% increase in the activity of GK)” value falls from 17.96 µM to 11.4 µM (1.6-fold).

`CC(C)CC(C(=O)Nc1nccs1)N1C(=O)Cc2cc(OC(F)(F)F)ccc21` (centres unmarked) [Example 41, 4-Methyl-2-(2-oxo-5-trifluoromethoxy-2,3-dihydro-indol-1-yl)-pentanoic acid thiazol-2-ylamide] and `CC(C)CC(C(=O)Nc1ccccn1)N1C(=O)C(=O)c2cc(OC(F)(F)F)ccc21` (centres unmarked) [Example 38, 2-(2,3-Dioxo-5-trifluoromethoxy-2,3-dihydro-indol-1-yl)-4-methyl-pentanoic acid pyridin-2-ylamide] are within 1.5-fold of each other in “SC1.5 (concentration of activator that produced a 50% increase in the activity of GK)” value: 2.81 µM for the first, 2.57 µM for the second.

`O=C1C(=O)N(C(CC2CCCC2)C(=O)Nc2ccn(C[C@@H](O)CO)n2)c2ccc(Cl)cc21` (stereo partly drawn) [Example 93, 2-(5-Chloro-2,3-dioxo-2,3-dihydro-indol-1-yl)-3-cyclopentyl-N-[1-((R)-2,3-dihydroxy-propyl)-1H-pyrazol-3-yl]-propionamide] and `O=C1C(=O)N(C(CC2CCCC2)C(=O)Nc2nccs2)c2cccc(Cl)c21` (centres unmarked) [Example 16, 2-(4-Chloro-2,3-dioxo-2,3-dihydro-indol-1-yl)-3-cyclopentyl-N-thiazol-2-yl-propionamide] are within 1.5-fold of each other in “SC1.5 (concentration of activator that produced a 50% increase in the activity of GK)” value: 3.36 µM for the first, 3.91 µM for the second.

Compared with `CC(C)CC(C(=O)Nc1ccccn1)N1C(=O)Cc2ccccc21` (centres unmarked) [Example 12, 4-Methyl-2-(2-oxo-2,3-dihydro-indol-1-yl)-pentanoic acid pyridin-2-ylamide], `CC(C)CC(C(=O)Nc1ccccn1)N1C(=O)Cc2cc(Cl)ccc21` (centres unmarked) [Example 108, 2-(5-Chloro-2-oxo-2,3-dihydro-indol-1-yl)-4-methyl-pentanoic acid pyridin-2-ylamide] is 3.7-fold lower in “SC1.5 (concentration of activator that produced a 50% increase in the activity of GK)” value: 18.09 µM for the first, 4.95 µM for the second.

First: CC(C)CC(C(=O)Nc1ccccn1)N1C(=O)C(=O)c2ccc(Cl)cc21 (centres unmarked) [Example 110, 2-(6-Chloro-2,3-dioxo-2,3-dihydro-indol-1-yl)-4-methyl-pentanoic acid pyridin-2-ylamide]
Second: CC(C)CC(C(=O)Nc1cnccn1)N1C(=O)C(=O)c2ccc(Cl)cc21 (centres unmarked) [Example 112, 2-(6-Chloro-2,3-dioxo-2,3-dihydro-indol-1-yl)-4-methyl-pentanoic acid pyrazin-2-ylamide]
The “SC1.5 (concentration of activator that produced a 50% increase in the activity of GK)” value of the first is 3.3-fold lower: 1.49 µM for the first, 4.85 µM for the second.

`CC(C)CC(C(=O)Nc1cnccn1)N1C(=O)Cc2c(Cl)cccc21` (centres unmarked) [Example 25, 2-(4-Chloro-2-oxo-2,3-dihydro-indol-1-yl)-4-methyl-pentanoic acid pyrazin-2-ylamide] and `Cc1ccc2c(c1)CC(=O)N2C(CC(C)C)C(=O)Nc1ccccn1` (centres unmarked) [Example 90, 4-Methyl-2-(5-methyl-2-oxo-2,3-dihydro-indol-1-yl)-pentanoic acid pyridin-2-ylamide] are within 1.5-fold of each other in “SC1.5 (concentration of activator that produced a 50% increase in the activity of GK)” value: 16.78 µM for the first, 12.84 µM for the second.

Compared with `O=C(Nc1nccs1)C(CC1CCCC1)N1C(=O)Cc2cc(Cl)ccc21` (centres unmarked) [Example 98, 2-(5-Chloro-2-oxo-2,3-dihydro-indol-1-yl)-3-cyclopentyl-N-thiazol-2-yl-propionamide], `O=C(Nc1nccs1)C(CC1CCCC1)N1C(=O)Cc2ccc(F)cc21` (centres unmarked) [Example 125, 3-Cyclopentyl-2-(6-fluoro-2-oxo-2,3-dihydro-indol-1-yl)-N-thiazol-2-yl-propionamide] is 2.7-fold lower in “SC1.5 (concentration of activator that produced a 50% increase in the activity of GK)” value: 1.22 µM for the first, 0.45 µM for the second.

Compared with `O=C(Nc1ccccn1)C(CC1CCCC1)N1C(=O)Cc2ccc(F)cc21` (centres unmarked) [Example 127, 3-Cyclopentyl-2-(6-fluoro-2-oxo-2,3-dihydro-indol-1-yl)-N-pyridin-2-yl-propionamide], `N#Cc1ccc2c(c1)N(C(CC1CCCC1)C(=O)Nc1ccccn1)C(=O)C2` (centres unmarked) [Example 137, 2-(6-Cyano-2-oxo-2,3-dihydro-indol-1-yl)-3-cyclopentyl-N-pyridin-2-yl-propionamide] is 11-fold higher in “SC1.5 (concentration of activator that produced a 50% increase in the activity of GK)” value: 0.18 µM for the first, 1.91 µM for the second.

With `O=C(Nc1ccccn1)C(CC1CCCC1)N1C(=O)Cc2cc(Br)ccc21` (centres unmarked) [Example 64, 2-(5-Bromo-2-oxo-2,3-dihydro-indol-1-yl)-3-cyclopentyl-N-pyridin-2-yl-propionamide] the “SC1.5 (concentration of activator that produced a 50% increase in the activity of GK)” value was 0.48 µM.

Same assay, conditions: @ 30 uM; 5 mM D-glucose, 30° C.

Going from `Cc1ccc2c(c1)C(=O)C(=O)N2C(CC(C)C)C(=O)Nc1cnccn1` (centres unmarked) [Example 84, 4-Methyl-2-(5-methyl-2,3-dioxo-2,3-dihydro-indol-1-yl)-pentanoic acid pyrazin-2-ylamide] to `CC(C)CC(C(=O)Nc1nccs1)N1C(=O)C(=O)c2cc(Br)ccc21` (centres unmarked) [Example 71, 2-(5-Bromo-2,3-dioxo-2,3-dihydro-indol-1-yl)-4-methyl-pentanoic acid thiazol-2-ylamide], the fold induction at 30 µM rises from 1.29 to 1.5.

`Cc1ccc2c(c1)CC(=O)N2C(CC(C)C)C(=O)Nc1ccn(C)n1` (centres unmarked) [Example 89, 4-Methyl-2-(5-methyl-2-oxo-2,3-dihydro-indol-1-yl)-pentanoic acid (1-methyl-1H-pyrazol-3-yl)-amide] was tested, and the fold induction at 30 µM was 1.23.
